Values of other authors, collected in patent US7282225B1, “Composition and methods for improving retinal health” (Occular Technologies, Inc., priority 2006, dated 2007).
Where two headings read alike, the source gives them in different places.

Columns and labels:
[1] = tested on: macular degeneration; conditions: dietary or supplement intake, case-control study
[2] = tested on: animals; conditions: animal study, alpha-lipoic acid supplements
[3] = tested on: animals
[4] = tested on: rats
[5] = tested on: AMD
[6] = tested on: age-related macular degeneration (AMD); conditions: participants at high risk (intermediate AMD, or advanced AMD in one eye only), daily oral tablets
[7] = tested on: AMD; conditions: diet of 6 mg per day
[8] = tested on: people; conditions: more than 750 mg/day
[9] = tested on: monocytes; conditions: 2 g/day
[10] = tested on: restenosis after angioplasty; conditions: 500 mg/day
[11] = tested on: colon cancer; conditions: 3 g/day
[12] = tested on: bladder cancer; conditions: 500 mg daily for 10 years or more
[13] = healthy, young men
[14] = tested on: heart disease; conditions: more than 700 mg/day versus 60 mg/day or less
[15] = tested on: cataracts and glaucoma
[16] = tested on: colon cancer; conditions: intake of more than 157 mg/day
[17] = tested on: asthma; conditions: 1-2 g/day
[18] = tested on: patients with atherosclerosis; conditions: 2 g/day

For `CC1=C(/C=C/C(C)=C/C=C/C(C)=C/CO)C(C)(C)CCC1` [retinol, Retinol], the “association of intake with risk of macular degeneration” value (from here on “association of intake”) [1] is given as “no effect”.
For `Cc1c(C)c2c(c(C)c1O)CC[C@@](C)(CCC[C@H](C)CCC[C@H](C)CCCC(C)C)O2` [vitamin E, alpha-tocopherol], the “association of intake” value [1] is given as “negative effects”.
In the case of `O=C(O)CCCCC1CCSS1` (stereo not drawn) [alpha-lipoic acid, Alpha-Lipoic Acid], the “side effects associated with amikacin and gentamicin” value [2] is given as “reduced side effects, particularly toxicity to the ear”, the “toxic side effects associated with cisplatin and cyclophosphamide” value [3] is given as “protected against toxic side effects” and the cholesterol levels [4] is given as “improved cholesterol levels”. For the same molecule, the thyroid hormone function [4] was “altered thyroid hormone function”.
For `[Zn]` [zinc], the accumulation of drusen ([5]; zinc group) is listed as “less accumulation of drusen” and the “treatment of AMD” value ([5]; zinc supplements) is listed as “effective”.
For `[O-2].[Zn+2]` [zinc alone], the “Reduced risk of developing advanced AMD” value [6] is given as “about 21%”, the “Reduced risk of vision loss” value [6] is given as “about 11%” and the “Reduced risk of developing advanced AMD” value ([6]; listed as Zinc Alone) is given as “AMD by about 21%”. For the same molecule, the “Reduced risk of vision loss” value ([6]; listed as Zinc Alone) was “loss by about 11%”.
For `CC1=C[C@H](O)CC(C)(C)[C@H]1/C=C/C(C)=C/C=C/C(C)=C/C=C/C=C(C)/C=C/C=C(C)/C=C/C1=C(C)C[C@@H](O)CC1(C)C` [lutein, Lutein], the “lower prevalence of AMD” value [7] is given as 43% and the “association of intake” value [1] is given as “most strongly associated with a reduced risk”.
For `O=C1O[C@H]([C@@H](O)CO)C(O)=C1O` [vitamin C, ascorbic acid], the “reduction of risk of dying prematurely” value [8] is listed as 60%, the “adhesion of monocytes to the lining of blood vessels” value [9] is listed as “reduce adhesion of monocytes” and the “restenosis (reclosing of opened arteries) after angioplasty” value [10] is listed as “significantly reduced”. For the same molecule, the “polyp growth in colon cancer” value [11] was “effectively prevent further polyp growth”, the “reduction of risk of developing bladder cancer” value [12] was 60% and the “minimum intake required to completely saturate the blood plasma with vitamin C” value [13] was ≥ 1000 mg/day. For the same molecule, the “lower risk of dying from heart disease” value [14] was 62%, the open angle glaucoma ([15]; large doses) was “can be reversed” and the “risk of cataracts and glaucoma” value ([15]; supplementation) was “significantly lower”. The “association of intake” value [1] was “little effect”, the “reduction of risk of developing colon cancer” value [16] was 50% and the asthma symptoms [17] was “reduce asthma symptoms significantly”. For the same molecule, the vasomotor dysfunction [18] was “effectively reverses”.
For `CC1=C(/C=C/C(C)=C/C=C/C(C)=C/C=C/C=C(C)/C=C/C=C(C)/C=C/C2=C(C)C[C@@H](O)CC2(C)C)C(C)(C)C[C@H](O)C1` [zeaxanthin, Zeaxanthin], the “association of intake” value [1] is given as “most strongly associated with a reduced risk”.
